# Measurements reported in PubChem BioAssay AID256 (DTP/NCI, 2004).
# Where “and” joins values, the source holds several entries; their conditions need not be identical. Equal values may be shown once. Inconclusive results and toxic doses are left out.
# Test system: CD2F1 mice, L1210 leukemia ip, survival T/C
# Test: NCI In Vivo Anticancer Drug Screen. Data for tumor model L1210 Leukemia (intraperitoneal) in CD2F1 (CDF1) mice
# Details: higher = longer survival
# How it was run: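 Activity against a transplanted murine tumor was judged by comparing the compound group with a vehicle group. The outcome in the treated animals was divided by that in the controls.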
# [1] = endpoint: mean survival time, dose: 100.0 mg/kg/injection, schedule: Q01DX009 (ip), vehicle: saline with Tween-80
# [2] = endpoint: mean survival time, dose: 200.0 mg/kg/injection, schedule: Q01DX009 (ip), vehicle: saline with Tween-80
# [3] = endpoint: mean survival time, dose: 100.0 mg/kg/injection, schedule: Q01DX009 (ip), vehicle: saline
# [4] = endpoint: mean survival time, dose: 100.0 mg/kg/injection, schedule: Q04DX003 (ip), vehicle: saline with Tween-80
# [5] = endpoint: mean survival time, dose: 200.0 mg/kg/injection, schedule: Q04DX003 (ip), vehicle: saline with Tween-80
smiles,measurement,setting,value
COc1ccc(CSc2nn(C3OC(COC(=O)c4ccccc4)C(OC(=O)c4ccccc4)C3OC(=O)c3ccccc3)c(=O)[nH]c2=S)cc1 (centres undefined),T/C,"endpoint: mean survival time, dose: 12.5 mg/kg/injection, schedule: Q01DX005 (ip), vehicle: distilled water + Tween-80",104 % of control
same,T/C,"endpoint: mean survival time, dose: 25.0 mg/kg/injection, schedule: Q01DX005 (ip), vehicle: distilled water + Tween-80",101 % of control
same,T/C,"endpoint: mean survival time, dose: 50.0 mg/kg/injection, schedule: Q01DX005 (ip), vehicle: distilled water + Tween-80",93 % of control
same,T/C,"endpoint: mean survival time, dose: 100.0 mg/kg/injection, schedule: Q01DX005 (ip), vehicle: distilled water + Tween-80",93 % of control
same,T/C,"endpoint: mean survival time, dose: 200.0 mg/kg/injection, schedule: Q01DX005 (ip), vehicle: distilled water + Tween-80",90 % of control
CCOC(=O)c1ccc2c(ccc[n+]2C)c1,T/C,"endpoint: mean survival time, dose: 37.5 mg/kg/injection, schedule: Q01DX009 (ip), vehicle: saline with Tween-80",112 % of control
same,T/C,"endpoint: mean survival time, dose: 75.0 mg/kg/injection, schedule: Q01DX009 (ip), vehicle: saline with Tween-80",107 % of control
same,T/C,"endpoint: mean survival time, dose: 150.0 mg/kg/injection, schedule: Q01DX009 (ip), vehicle: saline with Tween-80",103 % of control
CC(=O)Oc1ccccc1C(=O)O,T/C,"endpoint: mean survival time, dose: 31.3 mg/kg/injection, schedule: Q01DX009 (ip), vehicle: saline sonified",106 % of control
same,T/C,"endpoint: mean survival time, dose: 31.3 mg/kg/injection, schedule: Q01DX009 (ip), vehicle: saline with Tween-80",100 % of control
same,T/C,"endpoint: mean survival time, dose: 50.0 mg/kg/injection, schedule: Q03HX024 (ip), vehicle: saline",97 % of control
same,T/C,"endpoint: mean survival time, dose: 62.5 mg/kg/injection, schedule: Q01DX009 (ip), vehicle: saline sonified",101 % of control
same,T/C,"endpoint: mean survival time, dose: 62.5 mg/kg/injection, schedule: Q01DX009 (ip), vehicle: saline with Tween-80",98 % of control
same,T/C,"endpoint: mean survival time, dose: 100.0 mg/kg/injection, schedule: Q03HX024 (ip), vehicle: saline",97 % of control
same,T/C,"endpoint: mean survival time, dose: 125.0 mg/kg/injection, schedule: Q01DX009 (ip), vehicle: saline sonified",98 % of control
same,T/C,"endpoint: mean survival time, dose: 125.0 mg/kg/injection, schedule: Q01DX009 (ip), vehicle: saline with Tween-80",96 % of control and 100 % of control
same,T/C,"endpoint: mean survival time, dose: 250.0 mg/kg/injection, schedule: Q01DX009 (ip), vehicle: saline with Tween-80",96 % of control
same,T/C,"endpoint: mean survival time, dose: 500.0 mg/kg/injection, schedule: Q01DX001 (ip), vehicle: saline with Tween-80",104 % of control
same,T/C,"endpoint: mean survival time, dose: 1000.0 mg/kg/injection, schedule: Q01DX001 (ip), vehicle: saline with Tween-80",104 % of control
CCOC(=O)CCc1ccc2c(c1)OCO2,T/C,[1],103 % of control
same,T/C,[2],103 % of control
same,T/C,"endpoint: mean survival time, dose: 400.0 mg/kg/injection, schedule: Q01DX009 (ip), vehicle: saline with Tween-80",113 % of control
CCOC(=O)C(c1ccccc1)P(=O)(OCC)OCC (centres undefined),T/C,"endpoint: mean survival time, dose: 100.0 mg/kg/injection, schedule: Q04DX002 (ip), vehicle: saline with Tween-80",111 % of control
same,T/C,"endpoint: mean survival time, dose: 200.0 mg/kg/injection, schedule: Q04DX002 (ip), vehicle: saline with Tween-80",100 % of control
same,T/C,"endpoint: mean survival time, dose: 400.0 mg/kg/injection, schedule: Q04DX002 (ip), vehicle: saline with Tween-80",100 % of control
O=c1cc[nH]c(=S)[nH]1.[Pt],T/C,"endpoint: mean survival time, dose: 3.13 mg/kg/injection, schedule: Q04DX003 (ip), vehicle: distilled water + Tween-80",94 % of control
same,T/C,"endpoint: mean survival time, dose: 6.25 mg/kg/injection, schedule: Q04DX003 (ip), vehicle: distilled water + Tween-80",97 % of control
same,T/C,"endpoint: mean survival time, dose: 12.5 mg/kg/injection, schedule: Q04DX003 (ip), vehicle: distilled water + Tween-80",94 % of control
same,T/C,"endpoint: mean survival time, dose: 25.0 mg/kg/injection, schedule: Q04DX003 (ip), vehicle: distilled water + Tween-80",97 % of control
same,T/C,"endpoint: mean survival time, dose: 50.0 mg/kg/injection, schedule: Q04DX003 (ip), vehicle: distilled water + Tween-80",97 % of control
same,T/C,"endpoint: mean survival time, dose: 100.0 mg/kg/injection, schedule: Q04DX003 (ip), vehicle: distilled water + Tween-80",103 % of control
same,T/C,"endpoint: mean survival time, dose: 200.0 mg/kg/injection, schedule: Q04DX003 (ip), vehicle: distilled water + Tween-80",102 % of control
Clc1ccc(-c2nc3ccccc3s2)cc1,T/C,"endpoint: mean survival time, dose: 100.0 mg/kg/injection, schedule: Q01DX001 (ip), vehicle: Klucel (hydroxypropylcellulose) (HPC)",100 % of control
same,T/C,"endpoint: mean survival time, dose: 200.0 mg/kg/injection, schedule: Q01DX001 (ip), vehicle: Klucel (hydroxypropylcellulose) (HPC)",95 % of control
same,T/C,"endpoint: mean survival time, dose: 400.0 mg/kg/injection, schedule: Q01DX001 (ip), vehicle: Klucel (hydroxypropylcellulose) (HPC)",100 % of control
C[C@@](O)(/C=C/[C@H]1CC=CC(=O)O1)[C@@H](C[C@@H](O)\C=C/C=C\C=C\CO)OP(=O)(O)O,T/C,"endpoint: median survival time, dose: 0.4 mg/kg/injection, schedule: Q01DX005 (iv), vehicle: other",109 % of control
same,T/C,"endpoint: median survival time, dose: 0.78 mg/kg/injection, schedule: Q01DX005 (iv), vehicle: other",109 % of control
same,T/C,"endpoint: median survival time, dose: 1.56 mg/kg/injection, schedule: Q01DX005 (iv), vehicle: other",112 % of control
same,T/C,"endpoint: median survival time, dose: 1.56 mg/kg/injection, schedule: Q01DX005 (iv), vehicle: saline",121 % of control
same,T/C,"endpoint: median survival time, dose: 1.56 mg/kg/injection, schedule: Q01DX009 (ip), vehicle: other",243 % of control
same,T/C,"endpoint: median survival time, dose: 1.56 mg/kg/injection, schedule: Q01DX009 (ip), vehicle: saline",216 % of control
same,T/C,"endpoint: median survival time, dose: 3.12 mg/kg/injection, schedule: Q01DX009 (ip), vehicle: other",170 % of control and 191 % of control
same,T/C,"endpoint: median survival time, dose: 3.12 mg/kg/injection, schedule: Q01DX009 (ip), vehicle: saline",204 % of control
same,T/C,"endpoint: median survival time, dose: 3.13 mg/kg/injection, schedule: Q01DX005 (iv), vehicle: other",123 % of control
same,T/C,"endpoint: median survival time, dose: 3.13 mg/kg/injection, schedule: Q01DX009 (ip), vehicle: other",235 % of control
same,T/C,"endpoint: median survival time, dose: 6.25 mg/kg/injection, schedule: Q01DX005 (iv), vehicle: other",162 % of control
same,T/C,"endpoint: median survival time, dose: 6.25 mg/kg/injection, schedule: Q01DX009 (ip), vehicle: other",194 % of control and 207 % of control and 512 % of control
same,T/C,"endpoint: median survival time, dose: 6.25 mg/kg/injection, schedule: Q01DX009 (ip), vehicle: saline",216 % of control
same,T/C,"endpoint: median survival time, dose: 12.5 mg/kg/injection, schedule: Q01DX005 (iv), vehicle: other",197 % of control
same,T/C,"endpoint: median survival time, dose: 12.5 mg/kg/injection, schedule: Q01DX005 (iv), vehicle: saline",178 % of control
same,T/C,"endpoint: median survival time, dose: 12.5 mg/kg/injection, schedule: Q01DX009 (ip), vehicle: other",117 % of control and 337 % of control
same,T/C,"endpoint: median survival time, dose: 12.5 mg/kg/injection, schedule: Q01DX009 (ip), vehicle: saline",722 % of control
same,T/C,"endpoint: median survival time, dose: 25.0 mg/kg/injection, schedule: Q01DX005 (iv), vehicle: other",259 % of control
same,T/C,"endpoint: median survival time, dose: 25.0 mg/kg/injection, schedule: Q01DX005 (iv), vehicle: saline",201 % of control
same,T/C,"endpoint: median survival time, dose: 25.0 mg/kg/injection, schedule: Q01DX009 (ip), vehicle: other",273 % of control
same,T/C,"endpoint: median survival time, dose: 50.0 mg/kg/injection, schedule: Q01DX005 (iv), vehicle: saline",240 % of control
CCCCN=C1C(=O)Nc2ccccc21,T/C,"endpoint: mean survival time, dose: 75.0 mg/kg/injection, schedule: Q01DX001 (ip), vehicle: saline",98 % of control
same,T/C,"endpoint: mean survival time, dose: 150.0 mg/kg/injection, schedule: Q01DX001 (ip), vehicle: saline",97 % of control
same,T/C,"endpoint: mean survival time, dose: 300.0 mg/kg/injection, schedule: Q01DX001 (ip), vehicle: saline",95 % of control
c1ccc(SCN2CCN(CSc3ccccc3)CC2)cc1,T/C,[3],91 % of control
CCCNCCN(CC)CC,T/C,"endpoint: mean survival time, dose: 50.0 mg/kg/injection, schedule: Q01DX009 (ip), vehicle: saline",96 % of control
same,T/C,[3],93 % of control
same,T/C,"endpoint: mean survival time, dose: 100.0 mg/kg/injection, schedule: Q04DX003 (ip), vehicle: saline",100 % of control
same,T/C,"endpoint: mean survival time, dose: 200.0 mg/kg/injection, schedule: Q01DX009 (ip), vehicle: saline",96 % of control
same,T/C,"endpoint: mean survival time, dose: 200.0 mg/kg/injection, schedule: Q04DX003 (ip), vehicle: saline",96 % of control
CC1CC[N-]CC1.CC1CC[N-]CC1.CC1CC[N-]CC1.CC1CC[N-]CC1.[Cl][Rh][Cl],T/C,"endpoint: mean survival time, dose: 50.0 mg/kg/injection, schedule: Q01DX009 (ip), vehicle: saline sonified",97 % of control
same,T/C,"endpoint: mean survival time, dose: 100.0 mg/kg/injection, schedule: Q01DX009 (ip), vehicle: saline sonified",97 % of control
same,T/C,[4],111 % of control
same,T/C,[5],86 % of control
O=S(=O)(O)c1ccccc1N=Nc1c(S(=O)(=O)O)cc2cc(S(=O)(=O)O)c(N=Nc3ccccc3S(=O)(=O)O)c(O)c2c1O,T/C,[4],97 % of control
same,T/C,[5],100 % of control
Cc1nc(/N=C(\N)Nc2ccc(Cl)c(Cl)c2)[nH]c(=O)c1Cc1ccccc1,T/C,[4],95 % of control
same,T/C,[5],88 % of control
same,T/C,"endpoint: mean survival time, dose: 400.0 mg/kg/injection, schedule: Q04DX003 (ip), vehicle: saline with Tween-80",102 % of control
CCOC(=O)/C(C(C)=N)=C(\C)O,T/C,"endpoint: mean survival time, dose: 100.0 mg/kg/injection, schedule: Q01DX001 (ip), vehicle: saline with Tween-80",100 % of control
same,T/C,[1],101 % of control
same,T/C,"endpoint: mean survival time, dose: 200.0 mg/kg/injection, schedule: Q01DX001 (ip), vehicle: saline with Tween-80",98 % of control
same,T/C,[2],104 % of control
same,T/C,"endpoint: mean survival time, dose: 400.0 mg/kg/injection, schedule: Q01DX001 (ip), vehicle: saline with Tween-80",105 % of control
